Reference: US20230150951A1, “2,5- OR 2,6-DISUBSTITUTED HYDROQUINONE DERIVATIVES WITH AT LEAST ONE CARBOXY, SULFO OR AMIDO GROUP USEFUL AS MEDICAMENTS” (OM PHARMA SA, priority 2020, published 2023)
Read-outs that look alike come from different tables or passages of the source.

Key:
Type in all cases: cell-based
TNF-alpha = assay: Cytokine release after LPS induction on human whole blood: TNFα
Description: (§1) Aim of this in vitro method is to assess compounds effects on release of a panel of cytokines from whole blood following lipopolysaccharide (LPS) induced inflammatory reaction. Whole blood was incubated with compounds for 1 h prior to LPS induction. Cytokine levels in blood were measured using a multiplex FACS-based panel.
(§2) IC50 values determined for the tested compounds expressed in microM [μM] and the values for the inhibition of cytokines were listed for each compound.
(§3) Effect on cytokines release after LPS induction was performed on the compounds dissolved in DMSO or H2O to reach 10-fold concentrated stock solutions and dissolved in culture media.
(§4) Test system: Whole blood was removed from a single donor (into lithium heparin coated tubes; BD Vacutainer; 367886) and diluted 1:5 with RPMI 1640 (Thermo Fisher, 61870036). Within 30 minutes of sampling, blood was incubated with compounds for 1 h prior to LPS stimulation (O111:B4—Sigma L4391; 10 ng/ml final concentration). Stimulation continued under standard cell culture conditions (37° C. with 5% CO2) overnight (18 h), after which plates were centrifuged and supernatant removed and frozen at −80° C. until used for analyses.
(§5) Dilution of test compounds: 10×concentrated solutions (concerning to the final assay concentrations) of each test compound were prepared with the appropriate solvent (in DMSO or in water). These 10× compound solutions (10 μl) were then added to 90 μl pre-diluted whole blood (whole blood: RPMI1640, 1:5) resulting in the final assay concentration.
(§6) Test method: Diluted whole blood (80 μl) was pre-incubated with compounds (10 μl) to give final assay concentrations of 100, 30, 10, 3, 1, 0.3 and 0.1×10^−6M. Blood was incubated at 37° C. with 5% CO2 for 1 h. LPS was diluted in cell culture media to a concentration of […]; 10 μl was added to the whole blood to give a final concentration of 10 ng/ml. Plates were incubated at 37° C. for 18 h. Plates were centrifuged at 3,000 RPM for 5 minutes at 4° C. and supernatant removed and frozen at −80° C. until FACS analysis was carried out.
(§7) Cytokine release was measured using a custom multiplex system (ELISA Genie) according to manufacturers instructions. Prepared samples were run on an Attune NxT flow cytometer (Thermo Fisher).
(§8) Quantification of cytokine release inhibition: known concentration standards were run as part of the cytokine panel to allow quantification of each cytokine concentration in each sample. This was carried out using FCAP Array v3.0 software.
(§9) Results: The dose response relationship on cytokine release following LPS induction of inflammatory response in whole blood was assessed for all compounds. IC50 values were determined for each compound for a panel of cytokines (GM-CSF, IFN-gamma, IL-1beta, IL-2, IL-4, IL-5, IL-6, IL-8, IL-9, IL-10, IL-12p40, IL-13, IL-17A, IL-17F, IL-18, IL-21, IL-22, IL-33, TGF-beta, TNF-alpha, TNF-beta).

IL-13 = assay: Cytokine release after LPS induction on human whole blood: IL-13
Description: as §1, §2, §3, §4, §5, §6, §7, §8, §9

IL-33 = assay: Cytokine release after LPS induction on human whole blood: IL-33
Description: as §1, §2, §3, §4, §5, §6, §7, §8, §9

IL-18 = assay: Cytokine release after LPS induction on human whole blood: IL-18
Description: as §1, §2, §3, §4, §5, §6, §7, §8, §9

IL-5 = assay: Cytokine release after LPS induction on human whole blood: IL-5
Description: as §1, §2, §3, §4, §5, §6, §7, §8, §9

TGF-beta = assay: Cytokine release after LPS induction on human whole blood: TGFβ
Description: as §1, §2, §3, §4, §5, §6, §7, §8, §9

TNF-beta = assay: Cytokine release after LPS induction on human whole blood: TNFβ
Description: as §1, §2, §3, §4, §5, §6, §7, §8, §9

VEGFR-2 = target: T1, VEGFR-2 (Homo sapiens, UniProt P35968); assay: VEGF-165 induced phosphorylation of VEGF-Receptor on HUVEC; details: HUVEC preincubated 60 min, VEGF165 25 ng/mL 2 min; read-out: VEGFR-Phosphorylation inhibition IC50
T1 construct: endogenous in cells; host or cells: primary HUVEC
T1 sequence (P35968 20-1356): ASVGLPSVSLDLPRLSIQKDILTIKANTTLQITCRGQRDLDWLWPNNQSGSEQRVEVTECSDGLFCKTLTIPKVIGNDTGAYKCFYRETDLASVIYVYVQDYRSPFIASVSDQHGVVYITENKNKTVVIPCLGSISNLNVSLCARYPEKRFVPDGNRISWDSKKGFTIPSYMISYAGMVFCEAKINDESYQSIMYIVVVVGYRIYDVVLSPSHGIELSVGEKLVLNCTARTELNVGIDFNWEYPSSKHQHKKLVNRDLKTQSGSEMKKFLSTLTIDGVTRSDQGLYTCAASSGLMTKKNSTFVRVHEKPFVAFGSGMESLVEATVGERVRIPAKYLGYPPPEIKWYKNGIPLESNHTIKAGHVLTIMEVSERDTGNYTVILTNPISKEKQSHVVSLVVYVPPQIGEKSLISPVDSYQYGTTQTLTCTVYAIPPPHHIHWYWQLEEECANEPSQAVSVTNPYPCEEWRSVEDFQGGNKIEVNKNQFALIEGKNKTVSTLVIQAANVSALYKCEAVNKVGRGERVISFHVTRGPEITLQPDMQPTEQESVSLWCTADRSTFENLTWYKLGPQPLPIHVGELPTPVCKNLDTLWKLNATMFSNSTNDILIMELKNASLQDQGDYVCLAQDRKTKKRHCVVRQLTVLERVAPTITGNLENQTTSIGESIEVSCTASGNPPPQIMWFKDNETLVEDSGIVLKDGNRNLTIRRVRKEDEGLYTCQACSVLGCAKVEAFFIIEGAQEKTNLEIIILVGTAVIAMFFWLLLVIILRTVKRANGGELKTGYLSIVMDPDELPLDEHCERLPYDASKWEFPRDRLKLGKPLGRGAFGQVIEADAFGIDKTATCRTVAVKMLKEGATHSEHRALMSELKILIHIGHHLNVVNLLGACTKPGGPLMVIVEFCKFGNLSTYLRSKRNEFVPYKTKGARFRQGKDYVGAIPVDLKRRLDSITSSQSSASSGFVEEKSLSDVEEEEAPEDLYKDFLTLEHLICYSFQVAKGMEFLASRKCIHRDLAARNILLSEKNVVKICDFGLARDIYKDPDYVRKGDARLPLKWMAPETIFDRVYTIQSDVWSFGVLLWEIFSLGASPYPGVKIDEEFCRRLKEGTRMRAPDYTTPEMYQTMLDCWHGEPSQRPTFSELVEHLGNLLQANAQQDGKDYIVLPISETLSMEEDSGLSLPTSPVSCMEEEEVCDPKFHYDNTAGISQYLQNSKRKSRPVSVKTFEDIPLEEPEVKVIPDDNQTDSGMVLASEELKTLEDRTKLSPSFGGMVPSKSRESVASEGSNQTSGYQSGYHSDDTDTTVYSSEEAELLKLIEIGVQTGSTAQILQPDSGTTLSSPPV

IL-17A = assay: Cytokine release after LPS induction on human whole blood: IL-17A
Description: as §1, §2, §3, §4, §5, §6, §7, §8, §9

IL-4 = assay: Cytokine release after LPS induction on human whole blood: IL-4
Description: as §1, §2, §3, §4, §5, §6, §7, §8, §9

[1] = Homo sapiens, LPS 10 ng/ml, 18 h, read-out: Whole Blood: TNF α IC50
[2] = human whole blood, inhibition of LPS induced inflammation, read-out: IC50 TNFa
[3] = Homo sapiens, LPS 10 ng/ml, 18 h, read-out: Whole Blood: IL-13 IC50
[4] = human whole blood, inhibition of LPS induced inflammation, read-out: IC50 IL-13
[5] = Homo sapiens, LPS 10 ng/ml, 18 h, read-out: Whole Blood: IL-33 IC50
[6] = human whole blood, inhibition of LPS induced inflammation, read-out: IC50 IL-33
[7] = Homo sapiens, LPS 10 ng/ml, 18 h, read-out: Whole Blood: IL-18 IC50
[8] = human whole blood, inhibition of LPS induced inflammation, read-out: IC50 IL-18
[9] = Homo sapiens, LPS 10 ng/ml, 18 h, read-out: Whole Blood: IL-5 IC50
[10] = human whole blood, inhibition of LPS induced inflammation, read-out: IC50 IL-5
[11] = Homo sapiens, LPS 10 ng/ml, 18 h, read-out: Whole Blood: TGFβ IC50
[12] = human whole blood, inhibition of LPS induced inflammation, read-out: IC50 TGFbeta
[13] = Homo sapiens, LPS 10 ng/ml, 18 h, read-out: Whole Blood: TNF β IC50
[14] = human whole blood, inhibition of LPS induced inflammation, read-out: IC50 β
[15] = Homo sapiens, LPS 10 ng/ml, 18 h, read-out: Whole Blood: IL-17A IC50
[16] = human whole blood, inhibition of LPS induced inflammation, read-out: IC50 IL-17A
[17] = Homo sapiens, LPS 10 ng/ml, 18 h, read-out: Whole Blood: IL-4 IC50
[18] = human whole blood, inhibition of LPS induced inflammation, read-out: IC50 IL-4

IC50 (TNF-alpha; [1])	IC50 (TNF-alpha; [2])	IC50 (IL-13; [3])	IC50 (IL-13; [4])	IC50 (IL-33; [5])	IC50 (IL-33; [6])	IC50 (IL-18; [7])	IC50 (IL-18; [8])	IC50 (IL-5; [9])	IC50 (IL-5; [10])	IC50 (TGF-beta; [11])	IC50 (TGF-beta; [12])	IC50 (TNF-beta; [13])	IC50 (TNF-beta; [14])	IC50 (VEGFR-2)	IC50 (IL-17A; [15])	IC50 (IL-17A; [16])	IC50 (IL-4; [17])	IC50 (IL-4; [18])	Structure (SMILES)	further results
0.31 µM	0.31 µM	0.15 µM	0.15 µM	0.14 µM	0.14 µM	27.7 µM	27.7 µM	> 100 µM	100 µM	> 100 µM	100 µM	0.23 µM	0.23 µM	0.71 µM	0.17 µM	0.17 µM	> 100 µM	100 µM	O=C(O)Cc1cc(O)c(C(=O)Nc2ccccc2-c2nnn[nH]2)cc1O [IIIa-001aTz]	–
0.05 µM	0.05 µM	86.1 µM	86.1 µM	> 100 µM	100 µM	> 100 µM	100 µM	> 100 µM	100 µM	> 100 µM	100 µM	29.7 µM	29.7 µM	3.31 µM	0.09 µM	0.09 µM	> 100 µM	100 µM	O=C(O)c1cc(O)c(C(=O)Nc2ccccc2S(=O)(=O)O)cc1O [Ia-001c, 2,5-dihydroxy-4-(2-sulfophenylaminocarbonyl)benzoic acid]	–
0.17 µM	0.17 µM	0.15 µM	0.15 µM	0.24 µM	0.24 µM	> 100 µM	100 µM	> 100 µM	100 µM	> 100 µM	100 µM	0.3 µM	0.3 µM	0.15 µM	0.05 µM	0.05 µM	> 100 µM	100 µM	O=C(O)c1cc(NC(=O)c2cc(O)c(C(=O)O)cc2O)cc(C(=O)O)c1 [Ia-015a, 5-(4-carboxy-2,5-dihydroxybenzamido)isophthalic acid]	–

Further lines, the compound ahead of its results:

Structure (SMILES)	IC50 (TNF-alpha; [1])	IC50 (TNF-alpha; [2])	IC50 (IL-13; [3])	IC50 (IL-13; [4])	IC50 (IL-33; [5])	IC50 (IL-33; [6])	IC50 (IL-18; [7])	IC50 (IL-18; [8])	IC50 (IL-5; [9])	IC50 (IL-5; [10])	IC50 (TGF-beta; [11])	IC50 (TGF-beta; [12])	IC50 (TNF-beta; [13])	IC50 (TNF-beta; [14])	IC50 (VEGFR-2)	IC50 (IL-17A; [15])	IC50 (IL-17A; [16])	IC50 (IL-4; [17])	IC50 (IL-4; [18])	further results
O=C(O)c1cc(NC(=O)c2cc(O)c(C(=O)Nc3ccccc3-c3nnn[nH]3)cc2O)ccc1O [Ic-001a-Tz/004a, 5-(4-(2-(1H-tetrazol-5-yl)phenylaminocarbonyl)-2,5-dihydroxybenzamido)-2-hydroxy benzoic acid]	–	–	–	–	–	–	–	–	–	–	–	–	–	–	2.6 µM	–	–	–	–	IC50 (TNF-alpha; Homo sapiens, 18 h, read-out: Whole Blood: TNF α IC50): 0.002 µM; IC50 (TNF-alpha; Homo sapiens, read-out: IC50 TNFa): 0.002 µM; IC50 (IL-13; Homo sapiens, 18 h, read-out: Whole Blood: IL-13 IC50): 1.5 µM; IC50 (IL-13; Homo sapiens, read-out: IC50 IL-13): 1.5 µM; IC50 (IL-33; Homo sapiens, 18 h, read-out: Whole Blood: IL-33 IC50): 1.67 µM; IC50 (IL-33; Homo sapiens, read-out: IC50 IL-33): 1.67 µM; IC50 (IL-18; Homo sapiens, 18 h, read-out: Whole Blood: IL-18 IC50): 46.6 µM; IC50 (IL-18; Homo sapiens, read-out: IC50 IL-18): 46.6 µM; IC50 (IL-5; Homo sapiens, 18 h, read-out: Whole Blood: IL-5 IC50): > 100 µM; IC50 (IL-5; Homo sapiens, read-out: IC50 IL-5): 100 µM; IC50 (TGF-beta; Homo sapiens, 18 h, read-out: Whole Blood: TGFβ IC50): > 100 µM; IC50 (TGF-beta; Homo sapiens, read-out: IC50 TGFbeta): 100 µM; IC50 (TNF-beta; Homo sapiens): 3.02 µM; IC50 (TNF-beta; Homo sapiens, 18 h, read-out: Whole Blood: TNF β IC50): 3.02 µM; IC50 (IL-17A; Homo sapiens, 18 h, read-out: Whole Blood: IL-17A IC50): 0.02 µM; IC50 (IL-17A; Homo sapiens, read-out: IC50 IL-17A): 0.02 µM; IC50 (IL-4; Homo sapiens, 18 h, read-out: Whole Blood: IL-4 IC50): > 100 µM; IC50 (IL-4; Homo sapiens, read-out: IC50 IL-4): 100 µM
CCOC(=O)c1cc(NC(=O)c2cc(O)c(C(=O)OCC)cc2O)cc(NC(=O)c2cc(O)c(C(=O)OCC)cc2O)c1 [Ib-010a-E3, ethyl 3,5-bis(2,5-dihydroxy-4-ethoxycarbonylbenzoylamino)benzoate]	0.98 µM	0.98 µM	33 µM	33 µM	20 µM	20 µM	> 100 µM	100 µM	> 100 µM	100 µM	> 100 µM	100 µM	38.2 µM	38.2 µM	0.09 µM	0.52 µM	0.52 µM	> 100 µM	100 µM	–
O=C(O)c1cc(O)c(CN(Cc2cc(O)c(C(=O)O)cc2O)Cc2cc(O)c(C(=O)O)cc2O)cc1O [IIIc-061a, Tris(4-carboxy-2,5-dihydroxyphenylmethyl)amine]	0.03 µM	0.03 µM	0.31 µM	0.31 µM	0.31 µM	0.31 µM	32.4 µM	32.4 µM	> 100 µM	100 µM	> 100 µM	100 µM	0.81 µM	0.81 µM	4.3 µM	0.04 µM	0.04 µM	> 100 µM	100 µM	–
O=C(O)c1cc(NC(=O)c2cc(O)c(C(=O)Nc3ccc(O)c(C(=O)O)c3)cc2O)ccc1O [Ic-007a, 5-(4-(3-carboxy-4-hydroxyphenylaminocarbonyl)-2,5-dihydroxybenzamido)-2-hydroxy benzoic acid]	0.27 µM	0.27 µM	30.1 µM	30.1 µM	18.4 µM	18.4 µM	> 100 µM	100 µM	> 100 µM	100 µM	> 100 µM	100 µM	6.52 µM	6.52 µM	0.09 µM	0.04 µM	0.04 µM	> 100 µM	100 µM	–
O=C(O)c1cc(O)ccc1NC(=O)c1cc(O)cc(C(=O)Nc2ccc(O)cc2C(=O)O)c1O [IIc-009a, 2-(3-(2-carboxy-4-hydroxyphenylaminocarbonyl)-2,5-dihydroxybenzamido)-5-hydroxyl benzoic acid]	0.11 µM	0.11 µM	0.13 µM	0.13 µM	0.29 µM	0.29 µM	2.95 µM	2.95 µM	> 100 µM	100 µM	> 100 µM	100 µM	6.94 µM	6.94 µM	1.7 µM	0.001 µM	0.001 µM	> 100 µM	100 µM	–
